pIC50: −log10 of the molar value. “Also recorded” adds a separate entry of the source.

Type in all cases: biochemical
Assay [1] deals with T1, β-glucocerebrosidase (Mus musculus, UniProt P17439).
T1 construct: mouse liver microsome as an enzyme source; from tissue; host or cells: mouse liver microsome
T1 sequence (P17439 20-515): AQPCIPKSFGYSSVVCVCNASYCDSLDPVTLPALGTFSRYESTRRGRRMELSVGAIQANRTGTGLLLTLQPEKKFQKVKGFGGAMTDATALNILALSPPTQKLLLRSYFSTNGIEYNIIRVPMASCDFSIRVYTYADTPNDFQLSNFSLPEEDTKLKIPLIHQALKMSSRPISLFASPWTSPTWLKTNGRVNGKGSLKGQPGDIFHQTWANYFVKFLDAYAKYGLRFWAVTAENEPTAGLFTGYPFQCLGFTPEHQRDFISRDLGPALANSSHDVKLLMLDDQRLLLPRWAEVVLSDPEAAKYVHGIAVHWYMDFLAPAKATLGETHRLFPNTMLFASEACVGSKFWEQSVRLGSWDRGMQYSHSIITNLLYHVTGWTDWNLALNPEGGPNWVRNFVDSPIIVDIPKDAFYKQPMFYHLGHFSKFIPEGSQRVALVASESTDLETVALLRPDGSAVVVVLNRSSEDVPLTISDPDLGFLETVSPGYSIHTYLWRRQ
As to the kind of experiment: β-glucocerebrosidase inhibition with NBD-glucocerebroside (fluorescence-labeled natural substrate), mouse liver microsome. The conditions noted are these: for inhibition at 10 µM / pIC50: NBD-glucocerebroside, mouse liver microsome; for inhibition at 10 µM / inhibition of β-glucocerebrosidase activity (in words): 10 μM; for enhancement of β-glucocerebrosidase inhibition compared with C-1 and C-3 (in words): compared with saturated analogs C-1 and C-3. The method, then:
(§1) Glycosidase inhibitory effects of glycolipid analogs (1) The inhibitory effects of each of compounds 1E, 1Z, 2E and 2Z synthesized in Examples 1 to 4 on β-glucocerebrosidase and β-galactocerebrosidase were determined by using fluorescence-labeled natural substrates, i.e., 12-[N-methyl-N-(7-nitro-2-oxa-1,3-diaxol-4-yl)]aminododecanoic acid (NBD)-glucocerebroside and NBD-galactocrebroside. Namely, the β-glucocerebrosidease activity was determined in accordance with the method of Granbowski et al. [Clin. Chim. Acta., […], 123-135 (1982)] with the use of mouse liver microsome as an enzyme source. On the other hand, the β-galactocerebrosidase activity was determined in accordance with the method of Raghavan et al. [Biochim. Biophys. Acta, 877, 1-8 (1986)] with the use of mouse brain microsome as an enzyme source. […] Each substrate was used in a constant and large excess amount over the corresponding enzyme. […] IC50 levels (the concentration necessary for inhibiting 50% of the enzyme activity) of compounds 1E and 1Z were 0.3 μM and 0.1 μM, respectively. […] The inhibition (%) was determined in accordance with the following formula. [formula]
(§2) Under the same conditions as employed above, further, the inhibitory effects of the following compound C-1 [in the formula (a), X=NH, sugar analog=glucose type] being similar to the glycolipid analogs of the present invention and the sugar analogs C-2 to C-4 represented by the following formula [synthesized by the method similar to in the synthesis of compound C-1] were examined and compared.
For orientation: Liver microsomes are a subcellular fraction often used to study metabolism.

In assay [2] the target is T2, β-galactocerebrosidase (Mus musculus, UniProt P54818).
T2 construct: mouse brain microsome as an enzyme source; from tissue; host or cells: mouse brain microsome
T2 sequence (P54818 43-684): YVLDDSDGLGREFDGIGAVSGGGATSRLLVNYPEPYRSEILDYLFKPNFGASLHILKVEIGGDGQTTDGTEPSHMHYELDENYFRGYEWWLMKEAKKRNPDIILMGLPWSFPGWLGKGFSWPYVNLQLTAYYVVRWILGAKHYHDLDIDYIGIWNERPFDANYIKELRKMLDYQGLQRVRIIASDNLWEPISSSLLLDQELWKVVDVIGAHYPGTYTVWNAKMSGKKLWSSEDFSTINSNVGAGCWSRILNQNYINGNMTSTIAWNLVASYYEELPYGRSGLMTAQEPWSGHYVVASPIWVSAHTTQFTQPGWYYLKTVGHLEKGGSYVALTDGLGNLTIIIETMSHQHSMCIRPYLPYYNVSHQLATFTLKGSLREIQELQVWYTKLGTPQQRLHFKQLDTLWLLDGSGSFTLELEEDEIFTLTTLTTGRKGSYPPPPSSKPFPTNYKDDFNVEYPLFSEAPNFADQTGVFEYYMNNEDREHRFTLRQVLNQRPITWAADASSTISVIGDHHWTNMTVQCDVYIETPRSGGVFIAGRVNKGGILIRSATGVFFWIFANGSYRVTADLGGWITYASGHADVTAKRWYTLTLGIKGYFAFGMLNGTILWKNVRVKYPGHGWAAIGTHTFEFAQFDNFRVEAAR
As to the kind of experiment: β-galactocerebrosidase inhibition with NBD-galactocerebroside (fluorescence-labeled natural substrate), mouse brain microsome. The conditions noted are these: for inhibition of β-galactocerebrosidase activity (in words) / inhibition at 10 µM: 10 μM; for inhibition at 10 µM / pIC50: NBD-galactocerebroside, mouse brain microsome. The method, then: as §1, §2

For assay [3], the system named is β-galactocerebrosidase. Nature of the assay: β-galactocerebrosidase inhibition, 4-methyl-umbelliferyl substrate. The conditions noted are these: mouse brain microsome, 4-methyl-umbelliferyl glucoside. The method, then:
(§3) (2) The inhibitory effects of each of compounds 1E, 1Z, 2E and 2Z synthesized in Examples 1 to 4, the above-described compound C-1 and the following compounds C-5 and C-6 on β-glucocerebrosidase and β-galactocerebrosidase were determined by the following method. Namely, the same enzyme sources as employed in the above (1) were used, while 4-methyl-umbelliferyl glucoside was used as a substrate. The inhibition (%) and IC50 were determined in accordance with the method of Peter et al. [Clin. Chim. Acta, 60, 391-396 (1975)]. In each case, the substrate was used in a constant and large excess amount over the corresponding enzyme.

Assay [4] addresses T1, β-glucocerebrosidase. Nature of the assay: β-glucocerebrosidase inhibition with 4-methyl-umbelliferyl glucoside as substrate. As to conditions: mouse liver microsome. The protocol:
as §3

What is called inhibition is the change of the read-out against control, counted positive when it falls. Read a low inhibition as little suppression. In the case of `CCCCCCCCCCCCC/C=C\[C@@H](O)[C@H](CN[C@@H]1C[C@H](CO)[C@H](O)[C@H](O)[C@H]1O)NC(=O)CCCCCCCCCCCCCCC` [Compound C-4, reference compound], the values for the inhibition at 10 µM on β-glucocerebrosidase [1] and on β-galactocerebrosidase [2] were 0% and 15.4%, respectively. On β-galactocerebrosidase [2], the “inhibition of β-galactocerebrosidase activity (in words)” value is reported as “slightly inhibited the β-galactocerebrosidase activity”.

`CCCCCCCCCCCCC/C=C/[C@@H](O)[C@H](CO[C@@H]1C[C@H](CO)[C@@H](O)[C@H](O)[C@H]1O)NC(=O)CCCCCCCCCCCCCCC` [Compound C-5, reference compound]: in the assay on β-galactocerebrosidase [3], the “40 μM inhibition (%)” value was 31%. The same molecule gave an inhibition at 40 µM against β-glucocerebrosidase [4] of 0%.

For the molecule `CCCCCCCCCCCCC/C=C/[C@@H](O)[C@H](CN[C@@H]1C[C@H](CO)[C@@H](O)[C@H](O)[C@H]1O)NC(=O)CCCCCCCCCCCCCCC` [Compound C-1, reference compound], the inhibition at 10 µM was 37.3% against β-glucocerebrosidase [1] and 0% at β-galactocerebrosidase [2]. The “40 μM inhibition (%)” value with β-galactocerebrosidase [3] came out at 7%. This molecule also returned an inhibition at 40 µM against β-glucocerebrosidase [4] of 56%.

For orientation: pIC50 means the IC50 on a negative log10 scale, so that one unit is a factor of ten. High values mean a small IC50, low ones a large IC50. `CCCCCCCCCCCCC/C=C\[C@@H](O)[C@H](CN[C@@H]1C=C(CO)[C@@H](O)[C@H](O)[C@H]1O)NC(=O)CCCCCCCCCCCCCCC` [Compound 1Z, (2S,3R,4Z)-1-[(5a-carba-β-D-xylo-hex-5-enopyranosyl)amino]-2-(hexadecanoylamino)-4-octadecen-3-ol]: at β-glucocerebrosidase [1], the “inhibition of β-glucocerebrosidase activity (in words)” value was “strongly and specifically inhibited the β-glucocerebrosidase activity alone; also recorded: almost completely inhibited the β-glucocerebrosidase activity”; at 10 µM the inhibition was 97.7%; the pIC50 is 7.00; the “enhancement of β-glucocerebrosidase inhibition compared with C-1 and C-3 (in words)” value was “extremely enhanced”. Besides, at β-galactocerebrosidase [2], the inhibition at 10 µM is 0%. Further, the “40 μM inhibition (%)” value in the assay with β-galactocerebrosidase [3] was determined as 1%. Further, at β-glucocerebrosidase [4], the inhibition at 40 µM came out at 99% and the pIC50 was 6.36.

Regarding `CCCCCCCCCCCCC/C=C/[C@@H](O)[C@H](CN[C@@H]1C=C(CO)[C@H](O)[C@H](O)[C@H]1O)NC(=O)CCCCCCCCCCCCCCC` [Compound 2E, (2S,3R,4E)-1-[(5a-carba-α-L-arabino-hex-5-enopyranosyl)amino]-2-(hexadecanoylamino)-4-octadecen-3-ol], the inhibition at 10 µM against β-glucocerebrosidase [1] amounted to 0%. Besides, on β-galactocerebrosidase [2], the “inhibition of β-galactocerebrosidase activity (in words)” value is “strongly and specifically inhibited the β-galactocerebrosidase activity alone”; the inhibition at 10 µM stood at 92.6%; the pIC50 was 5.80. Moreover, in the assay with β-galactocerebrosidase [3], the “40 μM inhibition (%)” value came to 95% and the pIC50 was 5.90. At β-glucocerebrosidase [4], at 40 µM the inhibition was 31%.

Regarding `CCCCCCCCCCCCC/C=C/[C@@H](O)[C@H](CS[C@@H]1C[C@H](CO)[C@@H](O)[C@H](O)[C@H]1O)NC(=O)CCCCCCCCCCCCCCC` [Compound C-6, reference compound], the “40 μM inhibition (%)” value with β-galactocerebrosidase [3] is reported as 0%. Besides, on β-glucocerebrosidase [4], the inhibition at 40 µM was determined as 0%.

For `CCCCCCCCCCCCC/C=C\[C@@H](O)[C@H](CN[C@@H]1C[C@H](CO)[C@@H](O)[C@H](O)[C@H]1O)NC(=O)CCCCCCCCCCCCCCC` [Compound C-3, reference compound], the inhibition at 10 µM on β-glucocerebrosidase [1] is 64%; against β-galactocerebrosidase [2] it was 2.3%.

`CCCCCCCCCCCCC/C=C\[C@@H](O)[C@H](CN[C@@H]1C=C(CO)[C@H](O)[C@H](O)[C@H]1O)NC(=O)CCCCCCCCCCCCCCC` [Compound 2Z, (2S,3R,4Z)-1-[(5a-carba-α-L-arabino-hex-5-enopyranosyl)amino]-2-(hexadecanoylamino)-4-octadecen-3-ol] showed an inhibition at 10 µM against β-glucocerebrosidase [1] of 0%. For the same molecule, on β-galactocerebrosidase [2], the “inhibition of β-galactocerebrosidase activity (in words)” value was “strongly and specifically inhibited the β-galactocerebrosidase activity alone”; the inhibition at 10 µM amounted to 87.2%; the pIC50 was 5.64. In the assay on β-galactocerebrosidase [3], the “40 μM inhibition (%)” value was determined as 92% and the pIC50 is 5.73. For the same molecule, the inhibition at 40 µM against β-glucocerebrosidase [4] was found to be 43%.

Regarding `CCCCCCCCCCCCC/C=C/[C@@H](O)[C@H](CN[C@@H]1C=C(CO)[C@@H](O)[C@H](O)[C@H]1O)NC(=O)CCCCCCCCCCCCCCC` [Compound 1E, (2S,3R,4E)-1-[(5a-carba-β-D-xylo-hex-5-enopyranosyl)amino]-2-(hexadecanoylamino)-4-octadecen-3-ol], on β-glucocerebrosidase [1], the “inhibition of β-glucocerebrosidase activity (in words)” value was “strongly and specifically inhibited the β-glucocerebrosidase activity alone; also recorded: almost completely inhibited the β-glucocerebrosidase activity”; the inhibition at 10 µM turned out to be 95.2%; the pIC50 is 6.52; the “enhancement of β-glucocerebrosidase inhibition compared with C-1 and C-3 (in words)” value is recorded as “extremely enhanced”. The molecule also gave an inhibition at 10 µM against β-galactocerebrosidase [2] of 0%. Besides, the “40 μM inhibition (%)” value with β-galactocerebrosidase [3] is listed as 1%. At β-glucocerebrosidase [4], this molecule had an inhibition at 40 µM of 97% and a pIC50 of 6.24.

In turn, `CCCCCCCCCCCCC/C=C/[C@@H](O)[C@H](CN[C@@H]1C[C@H](CO)[C@H](O)[C@H](O)[C@H]1O)NC(=O)CCCCCCCCCCCCCCC` [Compound C-2, reference compound] came in with an inhibition at 10 µM against β-glucocerebrosidase [1] of 0%. Besides, on β-galactocerebrosidase [2], the “inhibition of β-galactocerebrosidase activity (in words)” value was “slightly inhibited the β-galactocerebrosidase activity” and 10 µM produced 12.9% inhibition.
